Laboratory results published in patent US9650390B2, “Water-soluble taxane derivatives and uses thereof” (priority 2014, dated 2017).

What was measured:
[1] = system: human non-small cell lung cancer NCI-H446; test: Inhibitory activity of larotaxel and tesetaxel derivatives on subcutaneously xenografted tumor NCI-H446 in nude mice; conditions: 12 mg/kg, D0 IV; for Weight change (%) D5: nude mice; for T/C (%) D20 / Tumor volume (mm^3) (D20) / Tumor inhibitory percent (%) D20 / Tumor volume (mm^3) (D0): NCI-H446 xenograft in nude mice; for Tumor inhibitory percent (%) D20: P = 0.000 vs control; for Tumor volume (mm^3) (D0): baseline at grouping (D0)
Source text: Human […] NCI-H446 cells were subcutaneously inoculated into nude mice.

[2] = In vitro dissociation in blood plasma of rat; type: in vitro ADME, SD rats; conditions: fresh SD rat plasma, 37° C.; for Sampling time/Dissociation percent (%) 2 min: 2 min incubation; for Sampling time/Dissociation percent (%) 5 min: 5 min incubation; for Sampling time/Dissociation percent (%) 10 min: 10 min incubation
Description: The obtained water soluble taxane derivatives of the following formulae were formulated as 0.2 mg/ml aqueous solutions. […] After 2 min, 5 min and 10 min of incubation, 0.2 ml of solutions were respectively taken from each of the samples, and added to acetonitrile (0.4 ml) cooled to −20° C. for precipitation of protein.

[3] = In vitro dissociation in blood plasma of rabbit; type: in vitro ADME, New Zealand white rabbits; conditions: fresh New Zealand white rabbit plasma, 37° C.
Description: The obtained water soluble taxane derivatives of the following formulae were formulated as 0.2 mg/ml aqueous solutions. […]

[4] = system: human prostate cancer PC-3; test: Inhibitory activity of cabazitaxel derivatives on subcutaneously xenografted tumor PC-3 in nude mice; conditions: D0 IV; for Weight change (%) D6: nude mice; for T/C (%) D20 / Tumor volume (mm^3) (D20) / Tumor inhibitory percent (%) D20 / Tumor volume (mm^3) (D0): PC-3 xenograft in nude mice; for Tumor inhibitory percent (%) D20: P = 0.000 vs control; for Tumor volume (mm^3) (D0): baseline at grouping (D0)
Source text: Purpose: to evaluate and compare the inhibitory activity of the water soluble cabazitaxel derivatives and cabazitaxel on subcutaneously xenografted tumor of human prostate cancer PC-3 in nude mice.
Human prostate cancer PC-3 cells were subcutaneously inoculated into nude mice. After the tumor volume reached 100-150 mm^3, the animals were randomly divided into several groups, and administered with the water soluble cabazitaxel derivatives of the following formula and cabazitaxel, respectively once on the same day (D0). The tumor volume was measured 2-3 times per week, the animals were weighed and the data were recorded until day 20 (D20) after grouping.
The tumor volume (V) was calculated according to the equation: V=½×a×b^2, wherein a and b represent the length and the width, respectively.
T/C (%)=(T−T0)/(C−C0)×100, wherein T and C represent the tumor volume at the end of the experiment; and T0 and C0 represent the tumor volume at the beginning of the experiment.

CC(=O)OC1C(=O)C23CC2CC2OCC2(OC(C)=O)C3C(OC(=O)c2ccccc2)C2(O)CC(OC(=O)C(OC(=O)C(CCN(C)C(C)C)C(F)(F)F)C(NC(=O)OC(C)(C)C)c3ccccc3)C(C)=C1C2(C)C.O=C(O)C=CC(=O)O (mixture of isomers) [Compound C41, 2′-O-[4-N-methyl-N-isopropylamino-2(R,S)-2-trifluoromethylbutyryl]larotaxel maleate]
Weight change (%) D5 [1]: −10.5%
T/C (%) D20 [1]: −34%
Tumor volume (mm^3) (D20) [1]: 51.7 ± 11.9 mm^3
Tumor inhibitory percent (%) D20 [1]: 67%
Tumor volume (mm^3) (D0) [1]: 109.8 ± 2.9 mm^3

CC(=O)OC12COC1CCC1(C)C3OC(CN(C)C)OC3C3=C(C)C(OC(=O)C(OC(=O)C(CCN(C)C(C)C)C(F)(F)F)C(NC(=O)OC(C)(C)C)c4ncccc4F)CC(O)(C(OC(=O)c4ccccc4)C12)C3(C)C.O=C(O)CCC(=O)O (mixture of isomers) [Compound C45, 2′-O-[4-N-methyl-N-isopropylamino-2(R,S)-2-trifluoromethylbutyryl]tesetaxel succinate]
Weight change (%) D5 [1]: −11.4%
T/C (%) D20 [1]: −34%
Tumor volume (mm^3) (D20) [1]: 53.4 ± 12.4 mm^3
Tumor inhibitory percent (%) D20 [1]: 85%
Tumor volume (mm^3) (D0) [1]: 112.3 ± 3.1 mm^3

CC(=O)OC12COC1CCC1(C)C3OC(CN(C)C)OC3C3=C(C)C(OC(=O)C(OC(=O)C(F)CC(C)N4CCCC4)C(NC(=O)OC(C)(C)C)c4ncccc4F)CC(O)(C(OC(=O)c4ccccc4)C12)C3(C)C.O=S(=O)(O)O (mixture of isomers) [Compound C46, 2′-O-[4-(pyrrolidin-1-yl)amino-2(R,S)-fluorovaleryl]tesetaxel sulfate]
T/C (%) D20 [1]: −23%
Tumor volume (mm^3) (D20) [1]: 61.2 ± 14.2 mm^3
Tumor inhibitory percent (%) D20 [1]: 58%
Tumor volume (mm^3) (D0) [1]: 111.7 ± 2.8 mm^3

CO[C@H]1C(=O)[C@]2(C)[C@@H](OC)C[C@H]3OC[C@@]3(OC(C)=O)[C@H]2[C@H](OC(=O)c2ccccc2)[C@]2(O)C[C@H](OC(=O)[C@H](OC(=O)[C@H](F)CCN(C)C)[C@@H](NC(=O)OC(C)(C)C)c3ccccc3)C(C)=C1C2(C)C.CS(=O)(=O)O [Compound C7, 2′-O-[4-N,N-dimethylamino-2(R)-fluorobutyryl]cabazitaxel methanesulfonate]
Sampling time/Dissociation percent (%) 2 min [2]: 49.7%
Sampling time/Dissociation percent (%) 5 min [2]: 88.9%
Sampling time/Dissociation percent (%) 10 min [2]: 100%
Sampling time/Dissociation percent (%) 2 min [3]: 78.4%
Sampling time/Dissociation percent (%) 5 min [3]: 94.8%
Sampling time/Dissociation percent (%) 10 min [3]: 100%
Weight change (%) D6 ([4]; 13 mg/kg): −14.2%
T/C (%) D20 ([4]; 13 mg/kg): −67%
Tumor volume (mm^3) (D20) ([4]; 13 mg/kg): 31.5 ± 11.8 mm^3
Tumor inhibitory percent (%) D20 ([4]; 13 mg/kg): 154%
Tumor volume (mm^3) (D0) ([4]; 13 mg/kg): 111.5 ± 2.2 mm^3

CO[C@H]1C(=O)[C@]2(C)[C@@H](OC)C[C@H]3OC[C@@]3(OC(C)=O)[C@H]2[C@H](OC(=O)c2ccccc2)[C@]2(O)C[C@H](OC(=O)[C@H](OC(=O)[C@@H](F)CCN(C)C)[C@@H](NC(=O)OC(C)(C)C)c3ccccc3)C(C)=C1C2(C)C.CS(=O)(=O)O [Compound C8, 2′-O-[4-N,N-dimethylamino-2(S)-fluorobutyryl]cabazitaxel methanesulfonate]
Sampling time/Dissociation percent (%) 2 min [2]: 49.4%
Sampling time/Dissociation percent (%) 5 min [2]: 88.4%
Sampling time/Dissociation percent (%) 10 min [2]: 100%
Sampling time/Dissociation percent (%) 2 min [3]: 85.6%
Sampling time/Dissociation percent (%) 5 min [3]: 94.5%
Sampling time/Dissociation percent (%) 10 min [3]: 100%
Weight change (%) D6 ([4]; 13 mg/kg): −14.4%
T/C (%) D20 ([4]; 13 mg/kg): −66%
Tumor volume (mm^3) (D20) ([4]; 13 mg/kg): 32.1 ± 12.1 mm^3
Tumor inhibitory percent (%) D20 ([4]; 13 mg/kg): 151%
Tumor volume (mm^3) (D0) ([4]; 13 mg/kg): 111.9 ± 2.0 mm^3

CO[C@H]1C(=O)[C@]2(C)[C@@H](OC)C[C@H]3OC[C@@]3(OC(C)=O)[C@H]2[C@H](OC(=O)c2ccccc2)[C@]2(O)C[C@H](OC(=O)[C@H](OC(=O)C(F)CCN(C)C)[C@@H](NC(=O)OC(C)(C)C)c3ccccc3)C(C)=C1C2(C)C.CS(=O)(=O)O (stereo partly drawn) [Compound C9, 2′-O-[4-N,N-dimethylamino-2(R,S)-fluorobutyryl]cabazitaxel methanesulfonate]
Sampling time/Dissociation percent (%) 2 min [2]: 49.3%
Sampling time/Dissociation percent (%) 5 min [2]: 88.6%
Sampling time/Dissociation percent (%) 10 min [2]: 100%
Sampling time/Dissociation percent (%) 2 min [3]: 81.2%
Sampling time/Dissociation percent (%) 5 min [3]: 96.7%
Sampling time/Dissociation percent (%) 10 min [3]: 100%
Weight change (%) D6 ([4]; 13 mg/kg): −14.4%
T/C (%) D20 ([4]; 13 mg/kg): −66%
Tumor volume (mm^3) (D20) ([4]; 13 mg/kg): 32.5 ± 11.6 mm^3
Tumor inhibitory percent (%) D20 ([4]; 13 mg/kg): 151%
Tumor volume (mm^3) (D0) ([4]; 13 mg/kg): 111.4 ± 2.3 mm^3

CO[C@H]1C(=O)[C@]2(C)[C@@H](OC)C[C@H]3OC[C@@]3(OC(C)=O)[C@H]2[C@H](OC(=O)c2ccccc2)[C@]2(O)C[C@H](OC(=O)[C@H](OC(=O)[C@H](F)CCN(C)C(C)C)[C@@H](NC(=O)OC(C)(C)C)c3ccccc3)C(C)=C1C2(C)C.Cl [Compound C34, 2′-O-[4-N-methyl-N-isopropylamino-2(R)-fluorobutyryl]cabazitaxel hydrochloride]
T/C (%) D20 ([4]; 13 mg/kg): −45%
Tumor volume (mm^3) (D20) ([4]; 13 mg/kg): 42.8 ± 11.9 mm^3
Tumor inhibitory percent (%) D20 ([4]; 13 mg/kg): 101%
Tumor volume (mm^3) (D0) ([4]; 13 mg/kg): 111.7 ± 3.2 mm^3

CO[C@H]1C(=O)[C@]2(C)[C@@H](OC)C[C@H]3OC[C@@]3(OC(C)=O)[C@H]2[C@H](OC(=O)c2ccccc2)[C@]2(O)C[C@H](OC(=O)[C@H](OC(=O)[C@@H](CCN(C)C)C(F)(F)F)[C@@H](NC(=O)OC(C)(C)C)c3ccccc3)C(C)=C1C2(C)C.CS(=O)(=O)O [Compound C35, 2′-O-[4-N,N-dimethylamino-2(R)-2-trifluoromethylbutyryl]cabazitaxel methanesulfonate]
Weight change (%) D6 ([4]; 13 mg/kg): −15.8%
T/C (%) D20 ([4]; 13 mg/kg): −46%
Tumor volume (mm^3) (D20) ([4]; 13 mg/kg): 42.3 ± 12.6 mm^3
Tumor inhibitory percent (%) D20 ([4]; 13 mg/kg): 105%
Tumor volume (mm^3) (D0) ([4]; 13 mg/kg): 110.2 ± 4.6 mm^3

CO[C@H]1C(=O)[C@]2(C)[C@@H](OC)C[C@H]3OC[C@@]3(OC(C)=O)[C@H]2[C@H](OC(=O)c2ccccc2)[C@]2(O)C[C@H](OC(=O)[C@H](OC(=O)[C@@H](CCN(C)C)C(F)F)[C@@H](NC(=O)OC(C)(C)C)c3ccccc3)C(C)=C1C2(C)C.Cc1ccc(S(=O)(=O)O)cc1 [Compound C36, 2′-O-[4-N,N-dimethylamino-2(R)-2-difluoromethylbutyryl]cabazitaxel p-toluene sulfonate]
T/C (%) D20 ([4]; 13 mg/kg): −37%
Tumor inhibitory percent (%) D20 ([4]; 13 mg/kg): 85%

CC(=O)O[C@H]1C(=O)[C@]23C[C@H]2C[C@H]2OC[C@@]2(OC(C)=O)[C@H]3[C@H](OC(=O)c2ccccc2)[C@]2(O)C[C@H](OC(=O)[C@H](OC(=O)[C@H](F)CCN(C)C)[C@@H](NC(=O)OC(C)(C)C)c3ccccc3)C(C)=C1C2(C)C.Cl [Compound C39, 2′-O-[4-N,N-dimethylamino-2(R)-fluorobutyryl]larotaxel hydrochloride]
Weight change (%) D5 [1]: −8.5%
T/C (%) D20 [1]: −62%
Tumor volume (mm^3) (D20) [1]: 34.9 ± 13.3 mm^3
Tumor inhibitory percent (%) D20 [1]: 148%
Tumor volume (mm^3) (D0) [1]: 111.5 ± 2.2 mm^3

CO[C@H]1C(=O)[C@]2(C)[C@@H](OC)C[C@H]3OC[C@@]3(OC(C)=O)[C@H]2[C@H](OC(=O)c2ccccc2)[C@]2(O)C[C@H](OC(=O)[C@H](O)[C@@H](NC(=O)OC(C)(C)C)c3ccccc3)C(C)=C1C2(C)C [cabazitaxel, reference compound]
Weight change (%) D6 ([4]; 7 mg/kg): −13.8%
T/C (%) D20 ([4]; 7 mg/kg): −27%
Tumor volume (mm^3) (D20) ([4]; 7 mg/kg): 79.9 ± 24.8 mm^3
Tumor inhibitory percent (%) D20 ([4]; 7 mg/kg): 127%
Tumor volume (mm^3) (D0) ([4]; 7 mg/kg): 111.7 ± 1.8 mm^3
